Measured values reported in the supplement of paper PMC10307832.

Columns and labels:
Assay in all cases: relative viability (nuclei count vs DMSO), 5 days (fraction); higher = more cells survive
COR-L23 = tested on: COR-L23
Outline: (§1)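 Values are medians from duplicate plates. Each reflects relative viability, defined as the nuclei count of treated wells over that of vehicle wells. Lung cancer cell lines in 1536-well plates were pin-tool dosed one day after seeding with one drug alone or with a fixed anchor-drug dose plus five library-drug doses (not always all listed) in √10 steps, then fixed, stained and imaged at 4× after 5 days.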

NCI-H1993 = tested on: NCI-H1993
Outline: as §1

HOP-62 = tested on: HOP-62
Outline: as §1

ABC-1 = tested on: ABC-1
Outline: as §1

NCI-H3122 = tested on: NCI-H3122
Outline: as §1

EMC-BAC-2 = tested on: EMC-BAC-2
Outline: as §1

HARA = tested on: HARA
Outline: as §1

NCI-H727 = tested on: NCI-H727
Outline: as §1

NCI-H2228 = tested on: NCI-H2228
Outline: as §1

NCI-H1792 = tested on: NCI-H1792
Outline: as §1

PC-3 [JPC-3] = tested on: PC-3 [JPC-3]
Outline: as §1

NCI-H2009 = tested on: NCI-H2009
Outline: as §1

LU99A = tested on: LU99A
Outline: as §1

SK-LU-1 = tested on: SK-LU-1
Outline: as §1

NCI-H596 = tested on: NCI-H596
Outline: as §1

A-427 = tested on: A-427
Outline: as §1

SW 1573 = tested on: SW 1573
Outline: as §1

LXF-289 = tested on: LXF-289
Outline: as §1

COc1cc(N2CCC(C(N)=O)CC2)ccc1Nc1nc(N)c(Cl)c(Nc2ccccc2S(=O)(=O)C(C)C)n1 [HG-5-88-01] + CC(C)C[C@H](NC(=O)[C@H](Cc1ccccc1)NC(=O)c1cnccn1)B(O)O [Bortezomib] (partner 0.002 µM)
relative viability (COR-L23; first compound 0.04 µM): 1.06 | relative viability (COR-L23; first compound 0.1265 µM): 1.08 | relative viability (COR-L23; first compound 0.4 µM): 0.854 | relative viability (COR-L23; first compound 1.265 µM): 0.91 | relative viability (COR-L23; first compound 4 µM): 0.896 | relative viability (NCI-H1993; first compound 0.04 µM): 1.08 | relative viability (NCI-H1993; first compound 0.1265 µM): 1.08 | relative viability (NCI-H1993; first compound 0.4 µM): 0.971 | relative viability (NCI-H1993; first compound 1.265 µM): 0.819 | relative viability (NCI-H1993; first compound 4 µM): 1.02 | relative viability (HOP-62; first compound 0.04 µM): 0.684 | relative viability (HOP-62; first compound 0.1265 µM): 0.732 | relative viability (HOP-62; first compound 0.4 µM): 0.77 | relative viability (HOP-62; first compound 1.265 µM): 0.76 | relative viability (HOP-62; first compound 4 µM): 0.732 | relative viability (ABC-1; first compound 0.04 µM): 0.335 | relative viability (ABC-1; first compound 0.1265 µM): 0.332 | relative viability (ABC-1; first compound 0.4 µM): 0.237 | relative viability (ABC-1; first compound 1.265 µM): 0.321 | relative viability (ABC-1; first compound 4 µM): 0.283 | relative viability (NCI-H3122; first compound 0.04 µM): 0.894 | relative viability (NCI-H3122; first compound 0.1265 µM): 0.647 | relative viability (NCI-H3122; first compound 0.4 µM): 0.335 | relative viability (NCI-H3122; first compound 1.265 µM): 0.296 | relative viability (NCI-H3122; first compound 4 µM): 0.216 | relative viability (EMC-BAC-2; first compound 0.04 µM): 1.07 | relative viability (EMC-BAC-2; first compound 0.1265 µM): 1.06 | relative viability (EMC-BAC-2; first compound 0.4 µM): 1.04 | relative viability (EMC-BAC-2; first compound 1.265 µM): 1.09 | relative viability (EMC-BAC-2; first compound 4 µM): 0.931 | relative viability (HARA; first compound 0.04 µM): 1.16 | relative viability (HARA; first compound 0.1265 µM): 1.03 | relative viability (HARA; first compound 0.4 µM): 1.07 | relative viability (HARA; first compound 1.265 µM): 1.02 | relative viability (HARA; first compound 4 µM): 1.02 | relative viability (NCI-H727; first compound 0.04 µM): 0.689 | relative viability (NCI-H727; first compound 0.1265 µM): 0.924 | relative viability (NCI-H727; first compound 0.4 µM): 0.769 | relative viability (NCI-H727; first compound 1.265 µM): 0.643 | relative viability (NCI-H727; first compound 4 µM): 0.388 | relative viability (NCI-H2228; first compound 0.04 µM): 0.363 | relative viability (NCI-H2228; first compound 0.1265 µM): 0.478 | relative viability (NCI-H2228; first compound 0.4 µM): 0.292 | relative viability (NCI-H2228; first compound 1.265 µM): 0.255 | relative viability (NCI-H2228; first compound 4 µM): 0.345 | relative viability (NCI-H1792; first compound 0.04 µM): 0.975 | relative viability (NCI-H1792; first compound 0.1265 µM): 0.929 | relative viability (NCI-H1792; first compound 0.4 µM): 0.941 | relative viability (NCI-H1792; first compound 1.265 µM): 0.817 | relative viability (NCI-H1792; first compound 4 µM): 0.958 | relative viability (PC-3 [JPC-3]; first compound 0.04 µM): 0.982 | relative viability (PC-3 [JPC-3]; first compound 0.1265 µM): 0.928 | relative viability (PC-3 [JPC-3]; first compound 0.4 µM): 0.819 | relative viability (PC-3 [JPC-3]; first compound 1.265 µM): 0.849 | relative viability (PC-3 [JPC-3]; first compound 4 µM): 0.533 | relative viability (NCI-H2009; first compound 0.04 µM): 0.99 | relative viability (NCI-H2009; first compound 0.1265 µM): 1.19 | relative viability (NCI-H2009; first compound 0.4 µM): 0.845 | relative viability (NCI-H2009; first compound 1.265 µM): 0.986 | relative viability (NCI-H2009; first compound 4 µM): 0.765 | relative viability (LU99A; first compound 0.04 µM): 1.09 | relative viability (LU99A; first compound 0.1265 µM): 1.15 | relative viability (LU99A; first compound 0.4 µM): 1.03 | relative viability (LU99A; first compound 1.265 µM): 1.21 | relative viability (LU99A; first compound 4 µM): 1.07 | relative viability (SK-LU-1; first compound 0.04 µM): 0.976 | relative viability (SK-LU-1; first compound 0.1265 µM): 1.2 | relative viability (SK-LU-1; first compound 0.4 µM): 1.07 | relative viability (SK-LU-1; first compound 1.265 µM): 0.973 | relative viability (SK-LU-1; first compound 4 µM): 0.336 | relative viability (NCI-H596; first compound 0.04 µM): 1.25 | relative viability (NCI-H596; first compound 0.1265 µM): 0.948 | relative viability (NCI-H596; first compound 0.4 µM): 1 | relative viability (NCI-H596; first compound 1.265 µM): 0.964 | relative viability (NCI-H596; first compound 4 µM): 1.02 | relative viability (A-427; first compound 0.04 µM): 0.968 | relative viability (A-427; first compound 0.1265 µM): 0.955 | relative viability (A-427; first compound 0.4 µM): 1.01 | relative viability (A-427; first compound 1.265 µM): 1.05 | relative viability (A-427; first compound 4 µM): 0.804 | relative viability (SW 1573; first compound 0.04 µM): 1.34 | relative viability (SW 1573; first compound 0.1265 µM): 1.08 | relative viability (SW 1573; first compound 0.4 µM): 0.997 | relative viability (SW 1573; first compound 1.265 µM): 0.978 | relative viability (SW 1573; first compound 4 µM): 0.821 | relative viability (LXF-289; first compound 0.04 µM): 1.04 | relative viability (LXF-289; first compound 0.1265 µM): 0.994 | relative viability (LXF-289; first compound 0.4 µM): 0.909 | relative viability (LXF-289; first compound 1.265 µM): 1.05 | relative viability (LXF-289; first compound 4 µM): 0.981
